Measurements as given in PubChem BioAssay (NCI).
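Step 1: Grow cells in 96-well plates. Step 2: Expose to compound for 48 hours at 5 concentrations. Step 3: Interpolate endpoints linearly; if unreached, use highest concentration. The concentration for 50% growth inhibition is given as GI50. The concentration for full growth arrest is given as TGI.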

Legend:
Assay in all cases: NCI tumour cell line growth inhibition, 48 h
SN12C renal = system: SN12C renal
OVCAR-4 ovarian = system: OVCAR-4 ovarian
LOX IMVI melanoma = system: LOX IMVI melanoma
RPMI-8226 leukemia = system: RPMI-8226 leukemia
MOLT-4 leukemia = system: MOLT-4 leukemia
NCI-H522 lung = system: NCI-H522 lung
K-562 leukemia = system: K-562 leukemia
HT29 colon = system: HT29 colon
EKVX NSCLC = system: EKVX NSCLC
MDA-MB-435 = system: MDA-MB-435

SMILES	GI50 (SN12C renal) [µM]	TGI (SN12C renal) [µM]	GI50 (OVCAR-4 ovarian) [µM]	TGI (OVCAR-4 ovarian) [µM]	GI50 (LOX IMVI melanoma) [µM]	TGI (LOX IMVI melanoma) [µM]	GI50 (RPMI-8226 leukemia) [µM]	TGI (RPMI-8226 leukemia) [µM]	GI50 (MOLT-4 leukemia) [µM]	TGI (MOLT-4 leukemia) [µM]	GI50 (NCI-H522 lung) [µM]	TGI (NCI-H522 lung) [µM]	TGI (K-562 leukemia) [µM]	TGI (HT29 colon) [µM]	TGI (EKVX NSCLC) [µM]	TGI (MDA-MB-435) [µM]	GI50 (K-562 leukemia) [µM]	GI50 (MDA-MB-435) [µM]	GI50 (HT29 colon) [µM]	GI50 (EKVX NSCLC) [µM]
CCC1CCc2nc3sc(C(=O)Nc4ccccc4C)c(N)c3cc2C1 (stereo not drawn)	8.37	> 100	0.694	> 100	0.775	> 100	0.329	> 100	0.661	> 100	0.775	> 100	–	–	–	–	–	–	–	–
O=C1C2c3[nH]c4ccccc4c3[C@@H]3CCCCC3C2C(=O)N1c1ccccc1 (stereo partly drawn)	–	32.4	–	75	–	29.8	–	47.7	–	62.9	–	–	> 100	37	37.5	–	–	–	–	–
c1ccc(COCC2OC3c4ccccc4COC3C2OCc2ccccc2)cc1 (stereo not drawn)	–	> 100	–	> 100	–	–	–	> 100	–	> 100	–	–	> 100	> 100	> 100	–	–	–	–	–
CSc1ccc(/C=C/c2ccnc3ccccc23)cc1	–	28.8	–	–	–	25.4	–	–	–	66.9	–	28.6	30.9	31	22.3	12.5	–	–	–	–
COc1ccc(CNc2nc3c(NC(C)=O)cc(C(F)(F)F)cc3nc2-c2ccccc2)cc1OC	–	> 100	–	95.7	–	> 100	–	> 100	–	> 100	–	23.5	> 100	> 100	> 100	–	–	–	–	–
COC(OC)[C@@H](C)[C@H](O)[C@](C)(O)C1OC(C)(C)OC(C(C)C=C(C)C)C1C (stereo partly drawn)	–	> 100	–	> 100	–	> 100	–	> 100	–	> 100	–	> 100	> 100	> 100	> 100	–	–	–	–	–
O=C(NO)C(=O)Nc1ccc(Cl)cc1[N+](=O)[O-]	–	> 100	–	> 100	–	> 100	–	> 100	–	> 100	–	> 100	> 100	> 100	> 100	–	–	–	–	–
Cc1cc(C)c(S(=O)(=O)ONC(=O)OC(C)(C)C)c(C)c1	–	> 100	–	> 100	–	> 100	–	> 100	–	> 100	–	> 100	> 100	> 100	> 100	–	–	–	–	–
CCOC(=O)NC(=O)c1cn(CCN2CCN(C(=O)CCCCCCCCCCNc3ncnc4nc[nH]c34)CC2)c(=O)[nH]c1=O	–	> 100	–	> 100	–	> 100	–	> 100	–	> 100	–	–	> 100	> 100	> 100	–	–	–	–	–
CN(CCCl)c1ccc(/C=C/C2=[N+](C)c3ccccc3C2(C)C)cc1	0.297	1.72	1.62	10	–	–	0.331	2.46	0.308	1.4	0.296	3.89	83.5	11.2	14.9	2.46	0.491	0.415	0.307	0.863
CCC(C(=O)[O-])C(=O)[O-].CCC(C(=O)[O-])C(=O)[O-].N.N.NCCCCCCN.[Pt+4].[Pt+4]	8.66	17.1	5.85	13	10.1	20.6	3.66	11.9	1.18	2.94	–	–	10.3	19.4	33.3	–	1.79	–	9.01	20.7
CC(=O)OCC1O[C@@H]([S-])C(OC(C)=O)[C@H](OC(C)=O)[C@@H]1OC(C)=O.[Au+].c1ccc(CN2[CH-]N(Cc3ccccc3)C(c3ccccc3)=C2c2ccccc2)cc1	2.22	5.58	1.4	3.15	1.9	3.86	1.9	4.94	3.06	9.47	1.58	3.66	–	–	–	3.1	–	1.66	–	–
CC1=C(c2cc(C(=O)Nc3cccc(C(F)(F)F)c3)ncn2)Sc2ccccc2N1	–	> 100	–	> 100	–	–	–	> 100	–	> 100	–	> 100	> 100	> 100	> 100	–	–	–	–	–
O=C([O-])c1ccc(C(=O)[O-])cc1.O=C([O-])c1ccc(C(=O)[O-])cc1.[Mo+2].[Mo+2]	> 100	> 100	> 100	> 100	> 100	> 100	> 100	> 100	> 100	> 100	–	–	> 100	> 100	> 100	–	> 100	–	> 100	> 100
Cc1nc(Nc2ccc([N+](=O)[O-])cc2)sc1C(/C=C/c1ccc(N(C)C)cc1)=N/NC(=O)c1ccccc1	–	> 100	–	> 100	–	> 100	–	–	–	> 100	–	> 100	> 100	> 100	> 100	–	–	–	–	–
N[C@@H]1CCCN(c2c(/C=C3\SC(=O)NC3=O)cccc2-c2ccccc2)C1	14.4	29.5	13.2	28.4	15.7	30.1	2.23	21.6	14.7	45.6	11.5	25.3	54.2	27.8	–	24.3	11.7	11.4	12.8	–
OC(c1ccccn1)C1CNc2ccccc21 (stereo not drawn)	–	> 100	–	> 100	–	> 100	–	> 100	–	> 100	–	> 100	> 100	> 100	> 100	–	–	–	–	–
COc1ccc(C(=O)c2cc3c(N)c(C(=O)Nc4cccc(Cl)c4C)sc3nc2C)cc1	0.155	> 25	0.851	> 25	0.154	> 25	0.0918	–	0.153	> 25	0.0623	> 6.78	> 25	> 25	> 25	–	0.0901	–	0.0863	0.134
